Values after ≈ are worked out from the molar mass of the structure shown. Read-outs that look alike come from different tables or passages of the source.
Experiments:
E. coli DSM1116 [1] = tested on: T1, E. coli DSM1116; assay: microbe, parasite or virus in culture; parameters: broth microdilution MIC, CLSI M07-A9, MHB II; details: Escherichia coli
T1 construct: DSM1116
Method: (§1) 2 Procedures for Biological Assays. Microdilution Assay. Minimal inhibitory concentration (MIC) values were determined according to the ninth edition of the Approved Standard M07-A9. The test was carried out for six different bacterial strains (E.coli DSM1116 [Gram-negative], E. coli BW25113 [Gram-negative], B. subtilis DSM10 [Gram-postive], M. luteus DSM1790 [Gram-postive], M. phlei DSM750 [Gram-postive], S. typhimurium TA100 [Gram-negative]. 20 µL of cryo stock of each strain were inoculated in 20 mL LB medium (Lysogeny broth: 10 g/L peptone, 5 g/L yeast extract, 5 g/L NaCl) followed by incubation overnight at 37 °C, 200 rpm. The test inoculum was adjusted by the 0.5 McFarland Standard (OD625 from 0.08 to 0.1). Within 15 min of preparation, the adjusted inoculum suspension was diluted in MHBII (BBLTM Mueller-Hinton Broth II, Becton, Dickinson and Company, New Jersey, USA) so that each well contained approximately 5 × 10^5 CFU/mL in a final volume of 100 µL. 95 µL of the inoculum were applied per well and 5 µL of the (diluted) antibiotic substance were added. Previously, the dry antibiotic compounds (1 to 15 and antibiotic control Ciprofloxacin (CIP)) were dissolved in DMSO (100%) with a concentration of 2560 µg/mL, and the so obtained stock solutions were further diluted in DMSO (100%). 5 µL of each antibiotic dilution were applied to the microdilution tray to reach final concentrations of 8 µg/mL to 0.016 µg/mL. One row of each well plate served as a growth control without antibiotic substances and another row of the microdilution tray served as sterility control (only MHB II-media). The antimicrobial effect of the solvent (DMSO) was tested by adding 5 µL DMSO to several wells. Purity check and cell titer control were performed according to International Standard M07-

M. luteus DSM1790 [2] = tested on: T2, M. luteus DSM1790; assay: microbe, parasite or virus in culture; parameters: broth microdilution MIC, CLSI M07-A9, MHB II; details: Micrococcus luteus
T2 construct: DSM1790
Method: as §1

E. coli BW25113 [3] = tested on: T3, E. coli BW25113; assay: microbe, parasite or virus in culture; parameters: broth microdilution MIC, CLSI M07-A9, MHB II; details: Escherichia coli
T3 construct: BW25113
Method: as §1

S. typhimurium TA100 [4] = tested on: T4, S. typhimurium TA100; assay: microbe, parasite or virus in culture; parameters: broth microdilution MIC, CLSI M07-A9, MHB II; details: Salmonella enterica
T4 construct: TA100
Method: as §1

B. subtilis DSM10 [5] = tested on: T5, B. subtilis DSM10; assay: microbe, parasite or virus in culture; parameters: broth microdilution MIC, CLSI M07-A9, MHB II; details: Bacillus subtilis
T5 construct: DSM10
Method: as §1

E. coli DSM1116 [6] = tested on: T1, E. coli DSM1116; assay: microbe, parasite or virus in culture; parameters: broth microdilution MIC in Mueller-Hinton Broth II, CLSI M07-A9
Method: (§2) 2 Procedures for Biological Assays. Microdilution Assay. Minimal inhibitory concentration (MIC) values were determined according to the ninth edition of the Approved Standard M07-A9. The test was carried out for six different bacterial strains (E.coli DSM1116 [Gram-negative], E. coli BW25113 [Gram-negative], B. subtilis DSM10 [Gram-postive], M. luteus DSM1790 [Gram-postive], M. phlei DSM750 [Gram-postive], S. typhimurium TA100 [Gram-negative]. 20 µL of cryo stock of each strain were inoculated in 20 mL LB medium (Lysogeny broth: 10 g/L peptone, 5 g/L yeast extract, 5 g/L NaCl) followed by incubation overnight at 37 °C, 200 rpm. The test inoculum was adjusted by the 0.5 McFarland Standard (OD625 from 0.08 to 0.1). Within 15 min of preparation, the adjusted inoculum suspension was diluted in MHBII (BBLTM Mueller-Hinton Broth II, Becton, Dickinson and Company, New Jersey, USA) so that each well contained approximately 5 × 10^5 CFU/mL in a final volume of 100 µL. 95 µL of the inoculum were applied per well and 5 µL of the (diluted) antibiotic substance were added. Previously, the dry antibiotic compounds (1 to 15 and antibiotic control Ciprofloxacin (CIP)) were dissolved in DMSO (100%) with a concentration of 2560 µg/mL, and the so obtained stock solutions were further diluted in DMSO (100%). 5 µL of each antibiotic dilution were applied to the microdilution tray to reach final concentrations of 8 µg/mL to 0.016 µg/mL. One row of each well plate served as a growth control without antibiotic substances and another row of the microdilution tray served as sterility control (only MHB II-media). The antimicrobial effect of the solvent (DMSO) was tested by adding 5 µL DMSO to several wells. […] After UV exposure, we observed a second resonance set mainly for signals arising from residues MCA and pABA‐1. The new signals for the methyl, vinyl and aromatic protons of MCA were clearly shifted up‐field. To provide evidence that the second resonance set arose from the Z isomer, we performed 2D nuclear Overhauser enhancement (NOE) measurements, which unambiguously confirmed the expected atomic distances in the two isomeric states (Figure S1 in the Supporting Information). While only a small portion of the initial E state (t=0 h) was converted after t=2.5 h, an almost complete conversion to the Z isomer was detected after t=16 h. […] After 32 h, however, the equilibrium had also been reached and approximately 65 % of the fluoro analogue adopted the Z‐isomeric form (Figure S2). It is important to note that significant accumulation of the (Z)‐isomer also occurred when albicidin samples were exposed to sunlight (ca. 50 and 80 % Z after 32 and 160 h daylight, respectively) underlining the vulnerability of 1 during routine handling. These findings became even more relevant when we determined minimal inhibitory concentrations (MICs) against a panel of bacteria (Table S1). […] The fact, that the albicidin producer X. albilineans inhabits the xylem of sugar cane, which is exposed to sunlight, could severely impact the stability of albicid

M. luteus DSM1790 [7] = tested on: T2, M. luteus DSM1790; assay: microbe, parasite or virus in culture; parameters: broth microdilution MIC in Mueller-Hinton Broth II, CLSI M07-A9; details: Micrococcus luteus
Method: as §2

E. coli BW25113 [8] = tested on: T3, E. coli BW25113; assay: microbe, parasite or virus in culture; parameters: broth microdilution MIC in Mueller-Hinton Broth II, CLSI M07-A9; details: Escherichia coli
Method: as §2

S. typhimurium TA100 [9] = tested on: T4, S. typhimurium TA100; assay: microbe, parasite or virus in culture; parameters: broth microdilution MIC in Mueller-Hinton Broth II, CLSI M07-A9; details: Salmonella enterica
Method: as §2

B. subtilis DSM10 [10] = tested on: T5, B. subtilis DSM10; assay: microbe, parasite or virus in culture; parameters: broth microdilution MIC in Mueller-Hinton Broth II, CLSI M07-A9; details: Bacillus subtilis
Method: as §2

E. coli DNA gyrase = molecular target: T6, E. coli DNA gyrase (Escherichia coli, UniProt P0AES4+P0AES6); assay: DNA gyrase supercoiling assay; format: biochemical; details: tested at 45 nM
T6 construct: gene gyrA; holoenzyme A2B2 (known biology)
T6 sequence (P0AES4 2-875, one chain of several): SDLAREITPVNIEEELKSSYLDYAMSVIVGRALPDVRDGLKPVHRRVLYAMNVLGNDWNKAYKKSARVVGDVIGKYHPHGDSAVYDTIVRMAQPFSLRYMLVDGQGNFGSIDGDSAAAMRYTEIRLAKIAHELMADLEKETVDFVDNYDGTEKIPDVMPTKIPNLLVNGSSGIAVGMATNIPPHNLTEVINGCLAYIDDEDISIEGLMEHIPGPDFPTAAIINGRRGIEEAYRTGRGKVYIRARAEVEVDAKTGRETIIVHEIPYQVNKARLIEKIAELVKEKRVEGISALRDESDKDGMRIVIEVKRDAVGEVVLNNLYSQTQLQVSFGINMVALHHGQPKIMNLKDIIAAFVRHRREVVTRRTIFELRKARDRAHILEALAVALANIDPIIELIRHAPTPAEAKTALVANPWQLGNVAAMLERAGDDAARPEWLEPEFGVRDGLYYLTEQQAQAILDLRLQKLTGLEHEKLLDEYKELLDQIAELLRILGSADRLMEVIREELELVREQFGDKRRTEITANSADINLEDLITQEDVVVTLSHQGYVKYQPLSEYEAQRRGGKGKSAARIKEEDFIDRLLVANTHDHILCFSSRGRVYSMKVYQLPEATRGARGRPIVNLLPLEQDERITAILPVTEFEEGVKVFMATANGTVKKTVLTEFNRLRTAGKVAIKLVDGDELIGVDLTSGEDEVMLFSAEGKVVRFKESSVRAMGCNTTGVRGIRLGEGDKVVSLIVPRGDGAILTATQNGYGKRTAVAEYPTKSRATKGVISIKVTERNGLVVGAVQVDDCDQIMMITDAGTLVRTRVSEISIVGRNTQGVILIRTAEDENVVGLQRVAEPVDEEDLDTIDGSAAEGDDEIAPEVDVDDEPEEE

[11] = Escherichia coli, DSM1116, read-out: MIC

Row | SMILES | MIC (E. coli DSM1116 [1]) | MIC (M. luteus DSM1790 [2]) | MIC (E. coli BW25113 [3]) | MIC (S. typhimurium TA100 [4]) | MIC (B. subtilis DSM10 [5]) | MIC (E. coli DSM1116 [6]; [11]) | MIC (E. coli DSM1116 [6]; Escherichia coli, dark sample, 100% E isomer) | MIC (M. luteus DSM1790 [7]) | MIC (M. luteus DSM1790 [7]; dark sample, 100% E isomer) | MIC (E. coli BW25113 [8]) | MIC (E. coli BW25113 [8]; dark sample, 100% E isomer) | MIC (S. typhimurium TA100 [9]) | MIC (S. typhimurium TA100 [9]; dark sample, 100% E isomer) | MIC (B. subtilis DSM10 [10]) | MIC (B. subtilis DSM10 [10]; dark sample, 100% E isomer) | inhibition at 45 nM (E. coli DNA gyrase) | MIC (E. coli DSM1116 [6]; inhibitor, CIP)
1 | COc1c(NC(=O)c2ccc(NC(=O)c3ccc(NC(=O)[C@H](CC#N)NC(=O)c4ccc(NC(=O)/C(C)=C/c5ccc(O)cc5)cc4)cc3)c(OC)c2O)ccc(C(=O)O)c1O [compound 1, albicidin] | 0.063 µg/mL (≈ 0.0747 µM) | 1 µg/mL (≈ 1.19 µM) | 0.063 µg/mL (≈ 0.0747 µM) | ≤ 0.016 µg/mL | 0.25 µg/mL (≈ 0.297 µM) | 0.063 µg/mL (≈ 0.0747 µM) | 0.063 µg/mL (≈ 0.0747 µM) | 1 µg/mL (≈ 1.19 µM) | 1 µg/mL (≈ 1.19 µM) | 0.063 µg/mL (≈ 0.0747 µM) | 0.063 µg/mL (≈ 0.0747 µM) | ≤ 0.016 µg/mL | 0.016 µg/mL (≈ 0.019 µM) | 0.25 µg/mL (≈ 0.297 µM) | 0.25 µg/mL (≈ 0.297 µM) | – | –
2 | COc1c(NC(=O)c2ccc(NC(=O)c3ccc(NC(=O)[C@H](CC#N)NC(=O)c4ccc(NC(=O)/C(C)=C\c5ccc(O)cc5)cc4)cc3)c(OC)c2O)ccc(C(=O)O)c1O [Z isomer of albicidin] | – | – | – | – | – | – | – | – | – | – | – | – | – | – | – | the Z isomer was incapable of inhibiting DNA gyrase | –
3 | O=C(O)c1cn(C2CC2)c2cc(N3CCNCC3)c(F)cc2c1=O [CIP, ciprofloxacin] | – | 1 µg/mL (≈ 3.02 µM) | ≤ 0.016 µg/mL | ≤ 0.016 µg/mL | 0.25 µg/mL (≈ 0.754 µM) | 0.016 µg/mL (≈ 0.0483 µM) | – | 1 µg/mL (≈ 3.02 µM) | – | ≤ 0.016 µg/mL | – | ≤ 0.016 µg/mL | – | 0.25 µg/mL (≈ 0.754 µM) | – | – | 0.031 µg/mL (≈ 0.0936 µM)
